The assay has as its target T1, human Cereblon WT GST-tagged protein (Homo sapiens, UniProt Q96SW2).
T1 construct: purchased CISBIO 64BDCRBNPEH
Description: CRBN-binding affinity, HTRF (CEREBLON BINDING kit). To be noted: for inhibition at 0.5 µM: read-out: Inhibition Rate at 0.5 µM (%); for inhibition at 2 µM: read-out: Inhibition Rate at 2 µM (%). The source says:
The CEREBLON BINDING kits (specification: 10,000 tests; product number: Catalog # 64BDCRBNPEH; CISBIO company) was used to determine the CRBN binding ability of the compounds to be tested through a HTRF method (homogeneous time-resolved fluorescence). The specific methods are as follows: • 1. […] Specifically, diluent #9 (1X) solution was used as the diluent, and multiple concentration gradients were set. […] Into the 96-well plate, the diluted test compounds and corresponding detection reagents were added, resulting in final test compound concentrations of 2 µM and 0.5 µM, respectively. […] Then, 2.5 µL of human Cereblon WT GST-tagged protein solution was added to each well. Finally, 5 µL of the thoroughly mixed Thalidomide-Re reagent and GST Eu antibody working solution were added to each of the aforementioned wells. […] The blank control wells were sequentially added with 2.5 µL of diluent #9 (1X) solution, 2.5 µL of PROTAC binding buffer, and 5 µL of thoroughly mixed Thalidomide-Re reagent and GST Eu antibody working solution. • 4.
A general note: Time-resolved FRET reads energy transfer from a long-lived donor to a nearby acceptor.

Molecules are shown by their SMILES.

The term inhibition denotes the drop in the measured response relative to a control, in per cent.

T1 sequence (Q96SW2 whole entry): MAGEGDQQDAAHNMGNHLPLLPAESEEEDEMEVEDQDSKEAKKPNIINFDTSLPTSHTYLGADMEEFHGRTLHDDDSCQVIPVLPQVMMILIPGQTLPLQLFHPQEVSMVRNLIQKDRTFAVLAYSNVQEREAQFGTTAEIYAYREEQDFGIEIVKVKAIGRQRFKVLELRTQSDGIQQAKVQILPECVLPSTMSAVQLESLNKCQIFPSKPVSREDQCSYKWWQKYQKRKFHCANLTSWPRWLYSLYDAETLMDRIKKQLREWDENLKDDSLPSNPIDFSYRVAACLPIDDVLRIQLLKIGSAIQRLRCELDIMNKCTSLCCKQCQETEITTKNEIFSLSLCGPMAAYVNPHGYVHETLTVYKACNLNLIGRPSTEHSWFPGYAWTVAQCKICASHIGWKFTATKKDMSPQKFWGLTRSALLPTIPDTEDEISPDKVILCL

On to `CCCc1cc(C)[nH]c(=O)c1CNC(=O)c1cc(-c2ccc(N3CCN(Cc4ccc5c(c4)CN(C4CCC(=O)NC4=O)C5=S)CC3)nc2)cc2c1cnn2C(C)C` (stereo not shown) [GT-08885, 6-(6-(4-((2-(2,6-dioxopiperidin-3-yl)-1-thioxoisoindolin-5-yl)methyl)piperazin-1-yl)pyridin-3-yl)-1-isopropyl-N-((6-methyl-2-oxo-4-propyl-1,2-dihydropyridin-3-yl)methyl)-1H-indazole-4-carboxamide], for which the inhibition at 0.5 µM is 40 to 53% and the inhibition at 2 µM lay in the range of 60 to 80%.

For `CCN(c1cc(-c2ccc(CN3CCN(Cc4ccc5c(c4)CN(C4CCC(=O)NC4=O)C5=S)CC3)cc2)cc(C(=O)NCc2c(C)cc(C)[nH]c2=O)c1C)C1CCOCC1` (stereo not shown) [GT-08886, N-((4,6-dimethyl-2-oxo-1,2-dihydropyridin-3-yl)methyl)-4'-((4-((2-(2,6-dioxopiperidin-3-yl)-1-thioxoisoindolin-5-yl)methyl)piperazin-1-yl)methyl)-5-(ethyl(tetrahydro-2H-pyran-4-yl)amino)-4-methyl-[1,1-biphenyl]-3-carboxamide], the inhibition at 0.5 µM lay within 53 to 60% and the inhibition at 2 µM lay within 80 to 100%.

Turning to `CCN(c1cc(-c2ccc(N3CCN(Cc4ccc5c(c4)CN(C4CCC(=O)NC4=O)C5=S)CC3)cc2)cc(C(=O)NCc2c(C)cc(C)[nH]c2=O)c1C)C1CCOCC1` (stereo not shown) [GT-08887, N-((4,6-dimethyl-2-oxo-1,2-dihydropyridin-3-yl)methyl)-4'-(4-((2-(2,6-dioxopiperidin-3-yl)-1-thioxoisoindolin-5-yl)methyl)piperazin-1-yl)-5-(ethyl(tetrahydro-2H-pyran-4-yl)amino)-4-methyl-[1,1-biphenyl]-3-carboxamide], the inhibition at 0.5 µM is 60 to 80% and the inhibition at 2 µM lay in the range of 80 to 100%.

On to `Cn1c2ccncc2c2ccc(-c3cnc(N4CCN(Cc5ccc6c(c5)CN(C5CCC(=O)NC5=O)C6=S)CC4)c(Cl)c3)cc21` (stereo not shown) [GT-08978, 3-(5-((4-(3-chloro-5-(5-methyl-5H-pyrido[4,3-b]indol-7-yl)pyridin-2-yl)piperazin-1-yl)methyl)-1-thioxoisoindolin-2-yl)piperidine-2,6-dione], for which the inhibition at 0.5 µM is 60 to 80% and the inhibition at 2 µM fell in the range of 60 to 80%.

As to `Cc1cc(-c2ccc3c4cnccc4n(C)c3c2)cnc1N1CCN(Cc2ccc3c(c2)CN(C2CCC(=O)NC2=O)C3=S)CC1` (stereo not shown) [GT-08980, 3-(5-((4-(3-methyl-5-(5-methyl-5H-pyrido[4,3-b]indol-7-yl)pyridin-2-yl)piperazin-1-yl)methyl)-1-thioxoisoindolin-2-yl)piperidine-2,6-dione], the inhibition at 0.5 µM is 40 to 53% and the inhibition at 2 µM was 60 to 80%.

In the case of `Cn1c2ccncc2c2ccc(-c3ccc(N4CCN(Cc5ccc6c(c5)CN(C5CCC(=O)NC5=O)C6=S)CC4)nc3)cc21` (stereo not shown) [GT-08982, 3-(5-((4-(5-(5-methyl-5H-pyrido[4,3-b]indol-7-yl)pyridin-2-yl)piperazin-1-yl)methyl)-1-thioxoisoindolin-2-yl)piperidine-2,6-dione], the inhibition at 0.5 µM lay within 60 to 80% and the inhibition at 2 µM fell in the range of 80 to 100%.

`COc1ccc2cn(C3CCN(Cc4ccc5c(c4)CN(C4CCC(=O)NC4=O)C5=S)CC3)nc2c1NC(=O)c1cccc(C(F)(F)F)c1` (stereo not shown) [GT-09413, N-(2-(1-((2-(2,6-dioxopiperidin-3-yl)-1-thioxoisoindolin-5-yl)methyl)piperidin-4-yl)-6-methoxy-2H-indazol-7-yl)-3-(trifluoromethyl)benzamide]: the inhibition at 0.5 µM lay within 60 to 80% and the inhibition at 2 µM was in the range of 100 to 110%.

Regarding `COc1cc2nn(C3CCN(Cc4cccc5c4CN(C4CCC(=O)NC4=O)C5=S)CC3)cc2cc1NC(=O)c1cccc(C(F)(F)F)c1` (stereo not shown) [GT-09414, N-(2-(1-((2-(2,6-dioxopiperidin-3-yl)-1-thioxoisoindolin-4-yl)methyl)piperidin-4-yl)-6-methoxy-2H-indazol-5-yl)-3-(trifluoromethyl)benzamide], the inhibition at 0.5 µM is 20 to 30% and the inhibition at 2 µM lay within 60 to 80%.

Regarding `CC1(C)CCC(c2ccc(Cl)cc2)=C(CN2CCN(c3ccc(C(=O)NS(=O)(=O)c4ccc(N[C@H](CCN5CC6CCC(C5)N6Cc5ccc6c(c5)CN(C5CCC(=O)NC5=O)C6=S)CSc5ccccc5)c(S(=O)(=O)C(F)(F)F)c4)cc3)CC2)C1` (stereo partly drawn) [GT-09416, 4-(4-((4'-chloro-4,4-dimethyl-3,4,5,6-tetrahydro-[1,1'-biphenyl]-2-yl)methyl)piperazin-1-yl)-N-((4-(((2R)-4-(8-((2-(2,6-dioxopiperidin-3-yl)-1-thioxoisoindolin-5-yl)methyl)-3,8-diazabicyclo[3.2.1]octan-3-yl)-1-(phenylthio)butan-2-yl)amino)-3-((trifluoromethyl)sulfonyl)phenyl)sulfonyl)benzamide], the inhibition at 0.5 µM was in the range of 80 to 100% and the inhibition at 2 µM lay within 80 to 100%.

Turning to `O=C1CCC(N2Cc3cc(CN4CCN(c5ccc(-c6cc(F)c7c(c6)C(=O)N(C(C(=O)Nc6nccs6)c6ncn8c6CCC8)C7)cc5)CC4)ccc3C2=S)C(=O)N1` (stereo not shown) [GT-09423, 2-(6,7-dihydro-5H-pyrrolo[1,2-c]imidazol-1-yl)-2-(6-(4-(4-((2-(2,6-dioxopiperidin-3-yl)-1-thioxoisoindolin-5-yl)methyl)piperazin-1-yl)phenyl)-4-fluoro-1-oxoisoindolin-2-yl)-N-(thiazol-2-yl)acetamide], the inhibition at 0.5 µM was 53 to 60% and the inhibition at 2 µM is 60 to 80%.

Turning to `CCc1cc2c(cc1N1CCN(Cc3ccc4c(c3)CN(C3CCC(=O)NC3=O)C4=S)CC1)C(C)(C)c1[nH]c3cc(C#N)ccc3c1C2=O` (stereo not shown) [GT-09424, 8-(4-((2-(2,6-dioxopiperidin-3-yl)-1-thioxoisoindolin-5-yl)methyl)piperazin-1-yl)-9-ethyl-6,6-dimethyl-11-oxo-6,11-dihydro-5H-benzo[b]carbazole-3-carbonitrile], the inhibition at 0.5 µM lay within 40 to 53% and the inhibition at 2 µM fell in the range of 60 to 80%.

Turning to `CN(C)C(=O)c1cc2cnc(Nc3ccc(N4CCN(Cc5ccc6c(c5)C(=S)N(C5CCC(=O)NC5=O)C6)CC4)cn3)nc2n1C1CCCC1` (stereo not shown) [GT-09427, 7-cyclopentyl-2-((5-(4-((2-(2,6-dioxopiperidin-3-yl)-3-thioxoisoindolin-5-yl)methyl)piperazin-1-yl)pyridin-2-yl)amino)-N,N-dimethyl-7H-pyrrolo[2,3-d]pyrimidine-6-carboxamide], the inhibition at 0.5 µM is 60 to 80% and the inhibition at 2 µM fell in the range of 80 to 100%.

Regarding `CC(=O)c1c(C)c2cnc(Nc3ccc(N4CCN(Cc5ccc6c(c5)C(=S)N(C5CCC(=O)NC5=O)C6)CC4)cn3)nc2n(C2CCCC2)c1=O` (stereo not shown) [GT-09428, 3-(6-((4-(6-((6-acetyl-8-cyclopentyl-5-methyl-7-oxo-7,8-dihydropyrido[2,3-d]pyrimidin-2-yl)amino)pyridin-3-yl)piperazin-1-yl)methyl)-1-thioxoisoindolin-2-yl)piperidine-2,6-dione], the inhibition at 0.5 µM lay in the range of 40 to 53% and the inhibition at 2 µM lay within 60 to 80%.

Regarding `O=C1CCC(N2Cc3cc(CN4CCC(NC(=O)c5n[nH]cc5NC(=O)c5c(Cl)cccc5Cl)CC4)ccc3C2=S)C(=O)N1` (stereo not shown) [GT-09434, 4-(2,6-dichlorobenzamido)-N-(1-((2-(2,6-dioxopiperidin-3-yl)-1-thioxoisoindolin-5-yl)methyl)piperidin-4-yl)-1H-pyrazole-3-carboxamide], the inhibition at 0.5 µM lay in the range of 53 to 60% and the inhibition at 2 µM lay within 80 to 100%.

(Values after patent publication EP4745138A1, “THIO-GLUTARIMIDO ISOINDOLINONE DERIVATIVE, BIFUNCTIONAL PROTEIN DEGRADER CONTAINING SAME, AND USES THEREOF” (Gluetacs Therapeutics (Shanghai) Co., Ltd., priority 2023, dated 2025).)
